Results on 14 molecules are retold here after patent US20240408169A1 (priority 2023, published 2024).

One assay concerns NCI-H1048 cells. The assay is described as follows: MTT proliferation assay, NCI-H1048.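 Further: Dose-response in 96-well plates over 8 or 10 concentration points, with exposure spanning 3-4 cell doublings.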 It is filed as cell-based. Particulars: 5 days compound exposure, 1:3 serial dilution starting at 10 μM.
For another assay, the target named is T1, CyclinE1/CDK2 (Homo sapiens, UniProt P24864).
T1 construct: purchased Eurofins, discovery 14-475
Nature of the assay: Fluorescence Polarization (FP) competitive binding assay, Cyclin E1/Cdk2.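 Further: readings taken after two-hour equilibration at room temperature in HEPES buffer with NaCl, DTT, NP-40 and BSA, IC50 fitted from eight-concentration serial dilution series.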 A general note: Polarisation of emitted light reports the rotation of a fluorescent probe.

The next assay concerns OVCAR3 cells. Nature of the assay: MTT proliferation assay, OVCAR3.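 Further: compound given as an 8- or 10-point series, one day after plating, with exposure covering roughly 3-4 cell doublings.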 It is filed as cell-based. As to conditions: 5 days compound exposure, 1:3 serial dilution starting at 10 μM.
The target in another assay is T2, CyclinB1/CDK1 (Homo sapiens, UniProt P14635).
T2 construct: purchased Eurofins, discovery 14-450
The assay is described as follows: Fluorescence Polarization (FP) competitive binding assay, Cyclin B1/Cdk1.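 Further: fluorescence polarization read after equilibration at room temperature, with IC50 taken from serially diluted dose-response curves.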

For the next assay, the target named is T3, CyclinA2/CDK2 (Homo sapiens, UniProt P20248).
T3 construct: purchased CRELUX Protein Services
The assay is described as follows: Fluorescence Polarization (FP) competitive binding assay, Cyclin A2/Cdk2.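 Further: plates equilibrated two hours at room temperature before polarization reading, IC50 fitted from eight-concentration compound titration curves.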

Setting [1] is: 10 nM Cyclin E1/Cdk2, 2 nM FAM probe, average of 2-3 independent experiments, read-out: Cyclin E FP IC50.
[2] abbreviates: 10 nM Cyclin B1/Cdk1, 2 nM FAM probe; average of 2-3 independent experiments; read-out: Cyclin B FP IC50.
The mark [3] stands for this setting: 8 nM Cyclin A2/Cdk2, 2 nM FAM probe, average of 2-3 independent experiments, read-out: Cyclin A FP IC50.
The mark [4] stands for this setting: read-out: Cyclin B FP IC50; 10 nM Cyclin B1/Cdk1, 2 nM FAM probe; average of 2-3 independent experiments.

Like-named read-outs stand apart in the source and are kept apart here. *1 amine or outer side, *2 acyl side, *3 side chain or, on linkers, in order; H or OH if unused. Where a SMILES comes first, the peptide text is derived from it. Bridges are numbered along the chain shown (N, C = ends). [ ]: non-standard residue; d: D form. The star is where a group is joined. X98 = CN1CC2(C1)OCc1cc(-c3ccc(Cl)cc3C[C@@H](C(=O)[*:2])N(C)[*:1])ccc12; X90 = CC(=O)N1CC=C(c2ccc(Cl)cc2C[C@@H](C(=O)[*:2])N(C)[*:1])CC1; X216 = CN1CCC(c2ccc(Cl)cc2C[C@@H](C(=O)[*:2])N(C)[*:1])=CC1=O; NMehhhLys(Me) = CN([C@@H](CCCCCCCN(C)[*:3])C(=O)[*:2])[*:1]; X215 = Cc1noc(C)c1-c1ccc(Cl)cc1C[C@@H](C(=O)[*:2])N(C)[*:1]; X66 = CN([C@@H](Cc1cc(Cl)ccc1-c1cccnc1)C(=O)[*:2])[*:1]; NMe(hhhLys) = CN([C@@H](CCCCCCCN[*:3])C(=O)[*:2])[*:1]; NMe3Pal(2-OMe,5-Cl) = CN[C@@H](Cc1cc(Cl)cnc1OC)C(=O)O; X213 = CN([C@@H](Cc1cc(Cl)cc2c1cnn2C)C(=O)[*:2])[*:1]; X214 = CC(C)Cc1ccc(Cl)cc1C[C@@H](C(=O)[*:2])N(C)[*:1]; cBuCO(3,3-F2-1-CF3) = O=C(C1(C(F)(F)F)CC(F)(F)C1)*; NMePhe(2,5-Cl2) = CN[C@@H](Cc1cc(Cl)ccc1Cl)C(=O)O; Pro(trans-4-F) = O=C(O)[C@@H]1C[C@@H](F)CN1; Gly(cPr) = N[C@H](C(=O)O)C1CC1

For the molecule `CC(C)C[C@@H]1NC(=O)[C@@H](N(C)C(=O)[C@@H](NC(=O)[C@@H]2C[C@@H](F)CN2C(=O)C2(C(F)(F)F)CC3(CCC3)C2)C2CC2)CC=CCCCCNC(=O)[C@H](Cc2cc(Cl)ccc2Cl)N(C)C1=O` (single isomer, unassigned) [Example 16-P1], the concentration for 50% growth inhibition (GI50) is 340 nM in the assay on NCI-H1048 cells and 880 nM in the assay on OVCAR3 cells. Also, the values for the IC50 on CyclinE1/CDK2 (setting [1]) and on CyclinB1/CDK1 (setting [2]) were 3150 nM and 20 nM, respectively.
For `CC(C)C[C@@H]1NC(=O)[C@@H](N(C)C(=O)[C@@H](NC(=O)[C@@H]2C[C@@H](F)CN2C(=O)C2(C(F)(F)F)CC3(CCC3)C2)C2CC2)CC=CCCCCNC(=O)[C@H](Cc2cc(Cl)ccc2Cl)N(C)C1=O` (single isomer, unassigned) [Example 16-P2] the same measures were 350 nM, 990 nM, 2710 nM and 20 nM.
For `CC(C)C[C@@H]1NC(=O)[C@@H](N(C)C(=O)[C@@H](NC(=O)[C@@H]2C[C@@H](F)CN2C(=O)C2(C(F)(F)F)CC(F)(F)C2)C2CC2)CCCCCCCNC(=O)[C@H](Cc2cc(Cl)ccc2Cl)N(C)C1=O` [Example 7] ({cBuCO(3,3-F2-1-CF3)}-[Pro(trans-4-F)][Gly(cPr)][NMe(hhhLys)]L[NMePhe(2,5-Cl2)]; lactam 3-C) the same measures were 20 nM, 50 nM, 290 nM and 20 nM.
For `CC(C)C[C@@H]1NC(=O)[C@@H](N(C)C(=O)[C@@H](NC(=O)[C@@H]2C[C@@H](F)CN2C(=O)C2(C(F)(F)F)CC(F)(F)C2)C2CC2)CC=CCCCCN(C)C(=O)[C@H](Cc2cc(Cl)ccc2Cl)N(C)C1=O` [Example 14], in that order: 100 nM, 200 nM, 340 nM and 20 nM.
On to `CC(C)C[C@@H]1NC(=O)[C@@H](N(C)C(=O)[C@@H](NC(=O)[C@@H]2C[C@@H](F)CN2C(=O)C2(C(F)(F)F)CC(F)(F)C2)C2CC2)CC=CCCCCNC(=O)[C@H](Cc2cc(Cl)ccc2-c2cccc(Cl)c2)N(C)C1=O` [Example 19], for which the GI50 in the assay with NCI-H1048 cells worked out at 550 nM; in the assay on OVCAR3 cells, 1760 nM. The concentration for half-maximal inhibition (IC50) at CyclinA2/CDK2 (setting [3]) was 430 nM; at CyclinB1/CDK1 (setting [2]) it was 20 nM.
For `CC(C)C[C@@H]1NC(=O)[C@@H](N(C)C(=O)[C@@H](NC(=O)[C@@H]2C[C@@H](F)CN2C(=O)C2(C(F)(F)F)CC(F)(F)C2)C2CC2)CC=CCCCCNC(=O)[C@H](Cc2cc(Cl)ccc2C2=CCC(F)(F)CC2)N(C)C1=O` [Example 22] the same measures were 1100 nM, 1800 nM, 210 nM and 20 nM.
Consider `CC(=O)N1CC=C(c2ccc(Cl)cc2C[C@H]2C(=O)N(C)CCCCCCC[C@H](N(C)C(=O)[C@@H](NC(=O)[C@@H]3C[C@@H](F)CN3C(=O)C3(C(F)(F)F)CC(F)(F)C3)C3CC3)C(=O)N[C@@H](CC(C)C)C(=O)N2C)CC1` [Example 50, (2S,4R)—N—((S)-2-(((3S,6S,9S)-3-(2-(1-acetyl-1,2,3,6-tetrahydropyridin-4-yl)-5-chlorobenzyl)-6-isobutyl-1,4-dimethyl-2,5,8-trioxo-1,4,7-triazacyclohexadecan-9-yl)(methyl)amino)-1-cyclopropyl-2-oxoethyl)-1-(3,3-difluoro-1-(trifluoromethyl)cyclobutane-1-carbonyl)-4-fluoropyrrolidine-2-carboxamide] ({cBuCO(3,3-F2-1-CF3)}-[Pro(trans-4-F)][Gly(cPr)][NMehhhLys(Me)]L[X90]; lactam 3-C), for which the 50% growth inhibitory concentration (GI50) with NCI-H1048 cells and in the assay with OVCAR3 cells was 10 nM in each case. In addition, the IC50 at CyclinE1/CDK2 (setting [1]) was 1220 nM; at CyclinB1/CDK1 (setting [2]) it was 20 nM.
For the molecule `CC(C)Cc1ccc(Cl)cc1C[C@H]1C(=O)NCCCCCCC[C@H](N(C)C(=O)[C@@H](NC(=O)[C@@H]2C[C@@H](F)CN2C(=O)C2(C(F)(F)F)CC(F)(F)C2)C2CC2)C(=O)N[C@@H](CC(C)C)C(=O)N1C` [Example 64] ({cBuCO(3,3-F2-1-CF3)}-[Pro(trans-4-F)][Gly(cPr)][NMe(hhhLys)]L[X214]; lactam 3-C), the concentration for 50% growth inhibition (GI50) with NCI-H1048 cells came out at 510 nM; in the assay with OVCAR3 cells it was 1240 nM. Also, the concentration for half-maximal inhibition (IC50) on CyclinA2/CDK2 (setting [3]) stood at 380 nM; at CyclinB1/CDK1 (setting [2]), 20 nM.
On to `CC(C)C[C@@H]1NC(=O)[C@@H](N(C)C(=O)[C@@H](NC(=O)[C@@H]2C[C@@H](F)CN2C(=O)C2(C(F)(F)F)CC(F)(F)C2)C2CC2)CCCCCCCN(C)C(=O)[C@H](Cc2cc(Cl)ccc2-c2cccnc2)N(C)C1=O` [Example 196] ({cBuCO(3,3-F2-1-CF3)}-[Pro(trans-4-F)][Gly(cPr)][NMehhhLys(Me)]L[X66]; lactam 3-C), for which the concentration for 50% growth inhibition (GI50) in the assay on NCI-H1048 cells and in the assay on OVCAR3 cells was 10 nM each time. Moreover, the results for the IC50 on CyclinE1/CDK2 (setting [1]) and at CyclinB1/CDK1 (setting [2]) were 740 nM and 20 nM, respectively.
Consider `Cc1noc(C)c1-c1ccc(Cl)cc1C[C@H]1C(=O)N(C)CCCCCCC[C@H](N(C)C(=O)[C@@H](NC(=O)[C@@H]2C[C@@H](F)CN2C(=O)C2(C(F)(F)F)CC(F)(F)C2)C2CC2)C(=O)N[C@@H](CC(C)C)C(=O)N1C` [Example 210] ({cBuCO(3,3-F2-1-CF3)}-[Pro(trans-4-F)][Gly(cPr)][NMehhhLys(Me)]L[X215]; lactam 3-C), for which the values for the GI50 in the assay on NCI-H1048 cells and in the assay with OVCAR3 cells were 100 nM and 110 nM, respectively. Also, the values for the half-maximal inhibitory concentration (IC50) on CyclinA2/CDK2 and at CyclinB1/CDK1 (setting [4]) were 420 nM and 20 nM, respectively.
As for `COc1ncc(Cl)cc1C[C@H]1C(=O)N(C)CCCCCCC[C@H](N(C)C(=O)[C@@H](NC(=O)[C@@H]2C[C@@H](F)CN2C(=O)C2(C(F)(F)F)CC(F)(F)C2)C2CC2)C(=O)N[C@@H](CC(C)C)C(=O)N1C` [Example 222] ({cBuCO(3,3-F2-1-CF3)}-[Pro(trans-4-F)][Gly(cPr)][NMehhhLys(Me)]L[NMe3Pal(2-OMe,5-Cl)]; lactam 3-C), the GI50 in the assay on NCI-H1048 cells and in the assay with OVCAR3 cells was 10 nM in each case. Besides, the IC50 turned out to be 230 nM on CyclinE1/CDK2 and 20 nM on CyclinB1/CDK1 (setting [4]).
`CC(C)C[C@@H]1NC(=O)[C@@H](N(C)C(=O)[C@@H](NC(=O)[C@@H]2C[C@@H](F)CN2C(=O)C2(C(F)(F)F)CC(F)(F)C2)C2CC2)CCCCCCCN(C)C(=O)[C@H](Cc2cc(Cl)ccc2C2=CC(=O)N(C)CC2)N(C)C1=O` [Example 237] ({cBuCO(3,3-F2-1-CF3)}-[Pro(trans-4-F)][Gly(cPr)][NMehhhLys(Me)]L[X216]; lactam 3-C): the GI50 with NCI-H1048 cells stood at 10 nM; in the assay on OVCAR3 cells, 40 nM. The IC50 at CyclinE1/CDK2 (Cyclin E FP IC50, 10 nM Cyclin E1/Cdk2, 2 nM FAM probe, average of 2-3 independent experiments) worked out at 1140 nM; on CyclinB1/CDK1 (setting [4]), 20 nM.
`CC(C)C[C@@H]1NC(=O)[C@@H](N(C)C(=O)[C@@H](NC(=O)[C@@H]2C[C@@H](F)CN2C(=O)C2(C(F)(F)F)CC(F)(F)C2)C2CC2)CCCCCCCNC(=O)[C@H](Cc2cc(Cl)ccc2-c2ccc3c(c2)COC32CN(C)C2)N(C)C1=O` [Example 395] ({cBuCO(3,3-F2-1-CF3)}-[Pro(trans-4-F)][Gly(cPr)][NMe(hhhLys)]L[X98]; lactam 3-C): the values for the GI50 in the assay with NCI-H1048 cells and in the assay with OVCAR3 cells were 20 nM and 10 nM, respectively.
Regarding `CC(C)C[C@@H]1NC(=O)[C@@H](N(C)C(=O)[C@@H](NC(=O)[C@@H]2C[C@@H](F)CN2C(=O)C2(C(F)(F)F)CC(F)(F)C2)C2CC2)CCCCCCCN(C)C(=O)[C@H](Cc2cc(Cl)cc3c2cnn3C)N(C)C1=O` [Example 424] ({cBuCO(3,3-F2-1-CF3)}-[Pro(trans-4-F)][Gly(cPr)][NMehhhLys(Me)]L[X213]; lactam 3-C), the GI50 in the assay with NCI-H1048 cells worked out at 2510 nM; with OVCAR3 cells it was 1780 nM. Further, the IC50 on CyclinE1/CDK2 (setting [1]) amounted to 3820 nM; on CyclinB1/CDK1 (setting [2]), 45.5 nM.

The term GI50 denotes the concentration that inhibits growth by half. For orientation: IC50 means the concentration at which inhibition is half-maximal.
